Experimental findings from patent US20230398115A1, “MDM2 INHIBITORS AND COMBINATIONS THEREOF” (Novartis AG, priority 2015, published 2023) are described below.

The subject of one assay is HCT-116 xenografts. Description: HCT-116 xenograft in nude mice, tumor volume. It counts as in vivo. Particulars: for effect of sequential addition on tumor volume: day 19. How it is done:
All animal experiments were done in strict adherence to the Swiss law for animal protection. Female Crl:NU(NCr)-Foxn1nu mice were purchased from Charles River Laboratories International Inc (Germany) and kept in a pathogen-controlled environment. Subcutaneous tumors of HCT-116 (KRAS mutant, PIK3CA mutant, p53 wild-type) were induced by concentrating 3 million cells in 100 μl of PBS and injecting them in the right flank of nude mice. The mice were randomly grouped, and treatment was started when the tumor size reached 50 to 250 mm3. Each cohort included 8 mice. Tumor sizes were monitored three times weekly, and volumes were calculated with the following formula: (mm3)=length×width2×0.5.
COMPOUND A was dissolved in 0.5% hydroxypropyl methylcellulose, COMPOUND B was dissolved in 1% carboxymethylcellulose containing 0.5% Tween-80% in distilled water (pH7.6-8.0), and COMPOUND C was dissolved in Microemulsion pre-concentrate 5. All drugs were dosed orally using 5-10 ml/kg. COMPOUND A was administered three times a week (3qw) at 100 mg/kg. COMPOUND B and COMPOUND C were administered daily (q24 h) at 0.3 and 100 mg/kg, respectively. The combination dosing schedule and dosage were the same as the single reagents.
Six treatment cohorts (G1-G6) were tested: • G1: vehicle (DMSO) • G2: COMPOUND C • G3: COMPOUND A=>after 9 days treatment COMPOUND C was added • G4: COMPOUND B=>after 9 days treatment COMPOUND C was added • G5: COMPOUND A+COMPOUND B=>after 9 days treatment COMPOUND C was added • G6: COMPOUND A+COMPOUND B+COMPOUND C
For each tumor at each time-point the size was normalized to the size before the start of the treatment to obtain the “% Change tumor volume” (FIG. 17-18, y-axis). For FIG. 17 at each time point the mean size of all tumors per cohort was calculated, and the error of the size using the standard error of the mean (SEM). For FIG. 18 p-values were calculated using a one-tailed t test.

Assay [1] concerns RKO. Description: Cell proliferation, cell count by microscopy, HSA synergy (Examples 2-9). The conditions noted are these: 72 h, cell count relative to DMSO. It counts as cell-based. How it is done: (§1) After 24 h one 384-well plate per cell line was prepared for cell counting by microscopy (see below) without receiving treatment (=‘baseline’). The other cell plates were treated by transferring 25 nl of the 2000× compound from drug master plates using an ATS acoustic liquid dispenser (ECD Biosystems) and resulting in a final 1× concentration. COMPOUND A was used over a final concentration range of 13 nM-10 µM, COMPOUND B was used over a final concentration range of 13 nM-10 uM, and COMPOUND C was used over a final concentration range of 0.4 nM-0.3 µM (7 1:3 dilution steps). In order to assess the effect of the triple combination all individual COMPOUNDS (A, B, C), all three pair wise combinations (A+B, A+C, B+C), and the triple combination (A+B+C) were tested in the same experiment. Pair wise combinations and the triple combination were tested at a fixed ratio of 1:1 (for drug pairs) and 1:1:1 (for the drug triple) at each dilution resulting in 7 combination conditions per treatment. […] After compound addition 50 nl of 2 mM CellEvent Caspase-3/7 Green Detection Reagent (ThermoFisher, Catalog number C10423) were added to one of the three replicates using the HP D300 Digital Dispenser (Tecan). Caspase 3/7 induction was measured as a proxy for apoptosis induced by the treatments. Cells were treated for 72 h to 96 h depending on their doubling time (Table 4), and Caspase 3/7 activation was measured every 24 h by microscopy using an InCell Analyzer 2000 (GE Healthcare) equipped with a 4× objective and FITC excitation/emission filters. At the end of the treatment cells were prepared for cell counting by microscopy. Cells were fixed and permeabilised for 45 minutes in 4% PFA (Electron Microscopy Sciences, Catalog number 15714), 0.12% TX-100 (Electron Microscopy Sciences, Catalog number 22140) in PBS (Boston Bioproducts, Catalog number BM-220). After washing cells three times with PBS their DNA was stained for 30 minutes with Hoechst 33342 (ThermoFisher, Catalog number H3570) at a final concentration of 4 μg/ml. Cells were washed three times with PBS and then plates were heat-sealed using a PlateLoc (Agilent Technologies) with aluminum seals (Agilent Technologies, Catalog number 06644-001) and stored at 4° C. until imaging. All cells per well/treatment were captured in a single image by fluorescence microscopy using an InCell Analyzer 2000 (GE Healthcare) equipped with a 4× objective and DAPI excitation/emission filters.
(§2) Images were analyzed after adapting previously described methods (Horn, Sandmann et al. 2011) and using the Bioconductor package EBimage in R (Pau, Fuchs et al. 2010). Objects in both channels, DAPI (for Hoechst/DNA) and FITC (for Caspase 3/7), were segmented separately by adaptive thresholding and counted. A threshold for Caspase 3/7 positive objects was defined manually per cell line after comparing negative controls (DMSO) and positive controls (Staurosporine). By analyzing 17 additional object/nuclei features in the DNA channel (shape and intensity features) debris/fragmented nuclei were identified. To this end per cell line the distributions of the additional features between positive controls (Staurosporine) and negative controls (DMSO) were compared manually. Features that could differentiate between the conditions (e.g. a shift in the distribution of a feature measurement comparing DMSO with Staurosporine) where used to define the ‘debris’ population versus the population of ‘viable’ nuclei. The debris counts were subtracted from raw nuclei counts. The resulting nuclei number was used as measure of cell proliferation (‘cell count’).
(§3) The compound's effect on cell proliferation was calculated from the cell counts of the treatments relative to the cell counts of the negative control (DMSO), in FIG. 9 denoted as ‘Normalized cell count’ (=‘xnorm’) on the y-axis. Synergistic combinations were identified using the highest single agent model (HSA) as null hypothesis (Berenbaum 1989).

The subject of assay [2] is LoVo. The assay is described as above. In kind it is cell-based. Particulars: Example 2, single agent, 96 h, cell count relative to DMSO. On the procedure: as §1, §2, §3
For assay [3], the system named is LS-180. The assay is described as above. Particulars: 72 h, cell count relative to DMSO. It counts as cell-based. On the procedure: as §1, §2, §3
Assay [4] has as its system GP2d. The assay is described as above. The conditions noted are these: Example 2, single agent, 72 h, cell count relative to DMSO. It counts as cell-based. On the procedure: as §1, §2, §3
Another assay concerns HCT-116. The assay is described as above. Particulars: 72 h, cell count relative to DMSO. In kind it is cell-based. How it is done:
as §1, §2, §3

A further assay concerns SW48. Description: Cell proliferation, cell count by microscopy (Example 1). It counts as cell-based. The conditions noted are these: single agent, 96 h treatment, cell count relative to DMSO. How it is done:
(§4) To test the effect of the combination of COMPOUND A or COMPOUND B with COMPOUND C on cell proliferation cells were plated in black 384-well microplates with clear bottom (Matrix/Thermo Scientific, Catalog number 4332) in 50 ul media per well at cell densities between 500 and 1250 cells/well (Table 1) and allowed to incubate at 37 degrees, 5% CO2 for 24 h. After 24 h one 384-well plate per cell line was prepared for cell counting by microscopy (see below) without receiving treatment (=‘baseline’). The other cell plates were treated using a HP D300 Digital Dispenser (Tecan) generating 6-point dose response curves with 2.5× dilution steps.
(§5) COMPOUND A was used over a final concentration range of 51 nM-5 uM, COMPOUND B over a final concentration range of 10 nM-1 uM, and COMPOUND C over a final concentration range of 1 nM-100 nM.
(§6) For the combinations of COMPOUND A or COMPOUND B with COMPOUND C the single agents were combined at 6 single agent doses generating a dose matrix of 6×6=36 combination treatments. Additionally, negative controls (DMSO=‘vehicle’) and positive controls (Staurosporine=killing cells, 7-point 1:2 dilution series for a dose range of 16 nm-1 uM) were transferred as treatment controls. Cells were treated for 72 h to 96 h depending on their doubling time (Table 1). At the end of the treatment cells were prepared for cell counting by microscopy. Cells were fixed and permeabilised for 45 minutes in 4% PFA (Electron Microscopy Sciences, Catalog number 15714), 0.12% TX-100 (Electron Microscopy Sciences, Catalog number 22140) in PBS (Boston Bioproducts, Catalog number BM-220). After washing cells three times with PBS their DNA was stained for 30 minutes with Hoechst 33342 (ThermoFisher, Catalog number H3570) at a final concentration of 4 μg/ml. Cells were washed three times with PBS and then plates were heat-sealed using a PlateLoc (Agilent Technologies) with aluminum seals (Agilent Technologies, Catalog number 06644-001) and stored at 4° C. until imaging. All cells per well/treatment were captured in a single image by fluorescence microscopy using an InCell Analyzer 2000 (GE Healthcare) equipped with a 4× objective and DAPI excitation/emission filters.
as §2
(§7) The compound's effect on cell proliferation was calculated from the cell counts of the treatments relative to the cell counts of the negative control (DMSO), in FIGS. 1 and 2 denoted as ‘Normalized cell count’ on the y-axis.

For assay [5], the system named is RKO. The assay is described as above. It counts as cell-based. Particulars: single agent, 72 h treatment, cell count relative to DMSO. How it is done: as §4, §5, §6, §2, §7
The test system of the next assay is COLO-678. The assay is described as above. In kind it is cell-based. The conditions noted are these: colo678, single agent, 96 h treatment, cell count relative to DMSO. On the procedure: as §4, §5, §6, §2, §7
For assay [6], the system named is LoVo. The description is as above. It counts as cell-based. Particulars: single agent, 96 h treatment, cell count relative to DMSO. On the procedure:
as §4, §5, §6, §2, §7

Another assay concerns LIM2405. The assay is described as above. It counts as cell-based. The conditions noted are these: single agent, 72 h treatment, cell count relative to DMSO. How it is done: as §4, §5, §6, §2, §7
Assay [7] concerns LS-180. The description is as above. It counts as cell-based. The conditions noted are these: ls180, single agent, 72 h treatment, cell count relative to DMSO. How it is done: as §4, §5, §6, §2, §7
In assay [8] the test system is GP2d. Described as above. It counts as cell-based. Particulars: single agent, 72 h treatment, cell count relative to DMSO. How it is done:
as §4, §5, §6, §2, §7

Some results are limits rather than exact numbers.

Turning to `CC1(C)CCC(c2ccc(Cl)cc2)=C(CN2CCN(c3ccc(C(=O)NS(=O)(=O)c4ccc(N[C@H](CCN5CCOCC5)CSc5ccccc5)c(S(=O)(=O)C(F)(F)F)c4)cc3)CC2)C1` [ABT-263], the “effect of sequential addition on tumor volume” value in the assay with HCT-116 xenografts (ABT-263 100 mg/kg q24h added after 9 days to single agent COMPOUND A (G3)) is recorded as “no additional benefit”; in the assay on HCT-116 xenografts (ABT-263 100 mg/kg q24h added after 9 days to single agent trametinib (G4)), “stopped tumor progression”; with HCT-116 xenografts (ABT-263 100 mg/kg q24h added after 9 days to the combination of COMPOUND A and trametinib (G5)) it was “marked tumor regressions”.

As a reminder, the IC50 is the concentration at which inhibition is half-maximal. On to `CC1(C)CCC(c2ccc(Cl)cc2)=C(CN2CCN(c3ccc(C(=O)NS(=O)(=O)c4ccc(N[C@H](CCN5CCOCC5)CSc5ccccc5)c(S(=O)(=O)C(F)(F)F)c4)cc3)CC2)C1` [COMPOUND C], for which the half-maximal inhibitory concentration (IC50) in the assay with RKO [1] (Example 2, single agent) was more than 10 µM; in the assay on RKO [1] (Example 3, single agent), more than 10 µM; in the assay with RKO [1] (Example 4, single agent), more than 10 µM; in the assay with LoVo [2] it was more than 10 µM; in the assay with LS-180 [3] (Example 2, single agent), more than 10 µM; in the assay on LS-180 [3] (Example 3, single agent) it was more than 10 µM. The IC50 was more than 10 µM in the assay on LS-180 [3] (Example 4, single agent); more than 10 µM in the assay on GP2d [4]; more than 10 µM in the assay on HCT-116 (Example 2, single agent); more than 10 µM with HCT-116 (Example 3, single agent); more than 10 µM in the assay on HCT-116 (Example 4, single agent).

Turning to `CC(=O)Nc1cccc(-n2c(=O)n(C3CC3)c(=O)c3c(Nc4ccc(I)cc4F)n(C)c(=O)c(C)c32)c1` [trametinib, N-(3-{3-cyclopropyl-5-[(2-fluoro-4-iodophenyl)amino]-6,8-dimethyl-2,4,7-trioxo-3,4,6,7-tetrahydropyrido[4,3-d]pyrimidin-1(2H)-yl}phenyl)acetamide], the “tumor response (% change tumor volume)” value in the assay on HCT-116 xenografts (nude mice, oral, COMPOUND A 100 mg/kg 3qw, trametinib 0.3 mg/kg q24h, ABT-263 100 mg/kg q24h, 9 days of treatment) is “progressive disease”. For the same molecule, the IC75 in the assay with SW48 was 0.003; with RKO [5] it was more than 0.1; in the assay with COLO-678 it was more than 0.1; with LoVo [6] it was 0.018; in the assay with LIM2405, 0.008; with LS-180 [7], 0.014. In addition, in the assay with GP2d [8], the IC75 is more than 0.1.
